Earlier results on one compound are cited in paper PMC6182381, “Population Pharmacokinetics and Exposure-Response Relationships of Naldemedine” (Pharmaceutical Research, 2018).

Details of the data set: method as in earlier work. The settings on record: cited from earlier work.

Each structure is given as a SMILES string.

With `N=C(N)c1ccccc1` [Benzamidine], the “metabolite excreted in feces” value was ~20 % of the administered dose of naldemedine and the “metabolite excreted in urine” value was “approximately 32 % of the administered dose of naldemedine”.
